Experiment [1] addresses T1, Dual specificity mitogen-activated protein kinase kinase 4 (Homo sapiens) (UniProt P45985).
T1 sequence (whole entry): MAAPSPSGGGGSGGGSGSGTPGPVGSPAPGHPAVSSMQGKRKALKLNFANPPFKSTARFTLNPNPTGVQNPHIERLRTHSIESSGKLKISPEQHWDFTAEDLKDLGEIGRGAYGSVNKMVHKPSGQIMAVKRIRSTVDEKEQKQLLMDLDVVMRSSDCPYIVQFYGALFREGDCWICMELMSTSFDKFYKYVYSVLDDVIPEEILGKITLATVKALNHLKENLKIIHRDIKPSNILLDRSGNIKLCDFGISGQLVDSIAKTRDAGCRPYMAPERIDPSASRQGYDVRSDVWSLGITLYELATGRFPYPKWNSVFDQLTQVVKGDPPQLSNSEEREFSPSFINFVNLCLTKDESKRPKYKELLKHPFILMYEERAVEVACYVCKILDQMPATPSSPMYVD
As to the kind of experiment: Selectivity interaction (ActivX KiNativ screen (ex vivo kinase selectivity in human PBMCs)) EUB0001619a MAP2K4. It is filed as cell-based. To be noted: PBMC, at 1 µM.

Experiment [2] addresses Tyrosine-protein kinase Lyn (Homo sapiens, UniProt P07948). Nature of the experiment: Selectivity interaction (ActivX KiNativ screen (ex vivo kinase selectivity in human PBMCs)) EUB0001619a LYN. It is filed as cell-based. To be noted: PBMC, at 1 µM.
Experiment [3] addresses Nociceptin receptor (Homo sapiens) (UniProt P41146). Nature of the experiment: Selectivity interaction (Eurofins CEREP Diversity Profile (receptors and ion channels)) EUB0000279b OPRL1. The conditions noted are these: at 10 µM.
Experiment [4] has as its target T2, Tyrosine-protein kinase Mer (Homo sapiens) (UniProt Q12866).
T2 sequence (whole entry): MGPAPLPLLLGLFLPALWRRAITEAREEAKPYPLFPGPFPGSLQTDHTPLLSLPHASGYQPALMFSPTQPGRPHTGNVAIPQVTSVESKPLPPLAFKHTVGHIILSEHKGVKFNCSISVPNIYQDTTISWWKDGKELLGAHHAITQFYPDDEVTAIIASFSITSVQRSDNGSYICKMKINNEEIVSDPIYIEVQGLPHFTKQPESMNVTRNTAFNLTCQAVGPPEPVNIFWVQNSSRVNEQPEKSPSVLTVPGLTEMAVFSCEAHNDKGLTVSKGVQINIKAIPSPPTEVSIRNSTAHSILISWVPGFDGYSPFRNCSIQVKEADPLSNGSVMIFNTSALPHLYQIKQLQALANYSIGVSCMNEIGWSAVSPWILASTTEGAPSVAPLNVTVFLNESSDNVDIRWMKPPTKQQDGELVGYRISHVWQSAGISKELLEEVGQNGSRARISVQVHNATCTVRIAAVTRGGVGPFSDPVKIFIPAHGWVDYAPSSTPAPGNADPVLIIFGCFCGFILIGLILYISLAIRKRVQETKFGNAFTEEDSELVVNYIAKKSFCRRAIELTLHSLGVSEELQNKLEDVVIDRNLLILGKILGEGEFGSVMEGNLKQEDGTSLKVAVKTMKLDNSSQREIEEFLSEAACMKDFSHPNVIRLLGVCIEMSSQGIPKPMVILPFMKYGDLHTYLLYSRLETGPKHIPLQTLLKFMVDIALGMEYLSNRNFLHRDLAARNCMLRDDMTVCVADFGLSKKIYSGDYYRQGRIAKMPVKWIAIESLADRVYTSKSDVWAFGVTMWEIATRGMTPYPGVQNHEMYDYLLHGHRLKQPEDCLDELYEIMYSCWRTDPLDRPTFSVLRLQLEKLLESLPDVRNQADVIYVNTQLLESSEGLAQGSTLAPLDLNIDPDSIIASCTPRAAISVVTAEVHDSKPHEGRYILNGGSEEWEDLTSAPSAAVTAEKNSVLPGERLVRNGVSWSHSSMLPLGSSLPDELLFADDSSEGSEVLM
As to the kind of experiment: Selectivity interaction (KinomeScan (DiscoverX)) EUB0000695a MERTK. To be noted: at 100 nM.

Experiment [5] has as its target Serine/threonine-protein kinase N2 (Homo sapiens, UniProt Q16513). As to the kind of experiment: Selectivity interaction (KinomeScan (DiscoverX)) EUB0000607a PKN2. The conditions noted are these: at 10 µM.
Experiment [6] addresses RAC-beta serine/threonine-protein kinase (Homo sapiens) (UniProt P31751). Nature of the experiment: Selectivity interaction (KinomeScan (DiscoverX)) EUB0000045b AKT2.
Experiment [7] addresses T3, Serine/threonine-protein kinase PLK4 (Homo sapiens) (UniProt O00444).
T3 sequence (whole entry): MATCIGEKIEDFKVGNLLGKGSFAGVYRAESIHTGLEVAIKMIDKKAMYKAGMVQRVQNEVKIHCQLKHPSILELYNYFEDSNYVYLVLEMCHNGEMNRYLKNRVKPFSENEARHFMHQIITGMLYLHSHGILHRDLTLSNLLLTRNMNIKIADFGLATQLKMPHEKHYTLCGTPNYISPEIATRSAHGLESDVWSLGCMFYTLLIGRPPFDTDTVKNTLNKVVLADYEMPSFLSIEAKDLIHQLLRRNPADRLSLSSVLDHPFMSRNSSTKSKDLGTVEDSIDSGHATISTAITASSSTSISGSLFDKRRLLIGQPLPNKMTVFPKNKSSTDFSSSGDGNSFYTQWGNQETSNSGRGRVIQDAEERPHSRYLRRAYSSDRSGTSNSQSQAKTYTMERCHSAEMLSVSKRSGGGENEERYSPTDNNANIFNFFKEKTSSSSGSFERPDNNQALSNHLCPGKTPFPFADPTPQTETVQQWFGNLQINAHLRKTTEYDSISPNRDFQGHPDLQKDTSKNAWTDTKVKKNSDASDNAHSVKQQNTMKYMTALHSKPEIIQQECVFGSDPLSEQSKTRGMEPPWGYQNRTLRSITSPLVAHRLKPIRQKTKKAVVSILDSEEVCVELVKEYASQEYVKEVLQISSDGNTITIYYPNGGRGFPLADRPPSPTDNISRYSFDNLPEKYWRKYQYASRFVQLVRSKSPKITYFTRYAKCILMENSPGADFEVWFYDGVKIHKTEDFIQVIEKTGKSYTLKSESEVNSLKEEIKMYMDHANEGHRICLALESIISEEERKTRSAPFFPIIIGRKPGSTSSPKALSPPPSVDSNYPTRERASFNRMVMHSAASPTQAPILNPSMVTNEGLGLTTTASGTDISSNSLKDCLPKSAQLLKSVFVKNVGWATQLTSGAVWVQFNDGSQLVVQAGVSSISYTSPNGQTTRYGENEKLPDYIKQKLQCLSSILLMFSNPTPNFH
Nature of the experiment: Selectivity interaction (KinomeScan (DiscoverX)) EUB0001049a PLK4. To be noted: at 1 µM.

Experiment [8] has as its target Mitogen-activated protein kinase 3 (Homo sapiens, UniProt P27361). Nature of the experiment: Selectivity interaction (KinomeScan (DiscoverX)) EUB0001049a MAPK3. To be noted: at 1 µM.
Experiment [9] addresses Atypical kinase COQ8A, mitochondrial (Homo sapiens, UniProt Q8NI60). Nature of the experiment: Selectivity interaction (KinomeScan (DiscoverX)) EUB0000092b ADCK3. The conditions noted are these: at 10 µM.
For experiment [10], the target named is STE20-like serine/threonine-protein kinase (Homo sapiens, UniProt Q9H2G2). Nature of the experiment: Selectivity interaction (Competition-binding assay (DiscoverX)) EUB0000229b SLK.

The structures appear in SMILES notation. pKd: −log10 of the molar value. Some results are limits rather than exact numbers.

Chain of RAC-beta serine/threonine-protein kinase (Homo sapiens) (P31751 whole entry): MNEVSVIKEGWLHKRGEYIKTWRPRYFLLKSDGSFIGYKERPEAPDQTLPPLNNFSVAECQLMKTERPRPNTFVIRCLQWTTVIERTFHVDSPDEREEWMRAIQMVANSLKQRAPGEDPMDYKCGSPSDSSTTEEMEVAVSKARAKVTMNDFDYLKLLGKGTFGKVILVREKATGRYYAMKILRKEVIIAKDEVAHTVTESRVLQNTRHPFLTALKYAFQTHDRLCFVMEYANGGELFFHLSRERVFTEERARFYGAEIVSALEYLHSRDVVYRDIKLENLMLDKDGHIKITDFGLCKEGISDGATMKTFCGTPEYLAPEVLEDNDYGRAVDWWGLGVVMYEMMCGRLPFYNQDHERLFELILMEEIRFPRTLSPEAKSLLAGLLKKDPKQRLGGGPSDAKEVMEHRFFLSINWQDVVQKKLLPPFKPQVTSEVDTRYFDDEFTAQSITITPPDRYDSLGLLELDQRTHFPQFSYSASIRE
Chain of Atypical kinase COQ8A, mitochondrial (Q8NI60 163-647 limits assumed): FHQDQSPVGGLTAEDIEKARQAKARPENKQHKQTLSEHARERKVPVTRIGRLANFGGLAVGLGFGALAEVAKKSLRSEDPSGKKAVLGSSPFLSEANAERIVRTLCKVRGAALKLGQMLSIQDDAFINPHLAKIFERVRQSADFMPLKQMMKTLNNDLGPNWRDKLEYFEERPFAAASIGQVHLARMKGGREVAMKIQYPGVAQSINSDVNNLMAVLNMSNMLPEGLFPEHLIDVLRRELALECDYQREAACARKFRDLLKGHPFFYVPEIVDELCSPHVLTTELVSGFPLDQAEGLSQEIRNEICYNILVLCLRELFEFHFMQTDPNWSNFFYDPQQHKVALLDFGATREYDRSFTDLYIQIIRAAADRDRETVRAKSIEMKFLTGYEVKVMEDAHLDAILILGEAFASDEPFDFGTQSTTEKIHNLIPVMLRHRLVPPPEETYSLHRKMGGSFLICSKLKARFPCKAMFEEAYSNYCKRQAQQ
Chain of Tyrosine-protein kinase Lyn (P07948 2-512 limits assumed): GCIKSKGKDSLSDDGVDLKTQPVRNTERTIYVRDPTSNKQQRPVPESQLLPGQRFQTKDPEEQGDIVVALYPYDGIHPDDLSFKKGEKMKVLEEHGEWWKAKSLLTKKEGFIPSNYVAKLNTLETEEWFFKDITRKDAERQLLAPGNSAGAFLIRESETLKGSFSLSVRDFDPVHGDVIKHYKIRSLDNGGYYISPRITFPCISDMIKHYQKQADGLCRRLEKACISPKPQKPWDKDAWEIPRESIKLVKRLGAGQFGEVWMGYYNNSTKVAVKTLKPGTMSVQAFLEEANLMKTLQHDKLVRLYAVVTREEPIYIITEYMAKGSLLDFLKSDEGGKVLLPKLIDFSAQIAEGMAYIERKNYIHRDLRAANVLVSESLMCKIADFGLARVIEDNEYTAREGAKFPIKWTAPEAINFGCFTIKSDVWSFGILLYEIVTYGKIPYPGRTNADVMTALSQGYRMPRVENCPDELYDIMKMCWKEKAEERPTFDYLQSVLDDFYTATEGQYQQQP
Chain of STE20-like serine/threonine-protein kinase (Q9H2G2 whole entry): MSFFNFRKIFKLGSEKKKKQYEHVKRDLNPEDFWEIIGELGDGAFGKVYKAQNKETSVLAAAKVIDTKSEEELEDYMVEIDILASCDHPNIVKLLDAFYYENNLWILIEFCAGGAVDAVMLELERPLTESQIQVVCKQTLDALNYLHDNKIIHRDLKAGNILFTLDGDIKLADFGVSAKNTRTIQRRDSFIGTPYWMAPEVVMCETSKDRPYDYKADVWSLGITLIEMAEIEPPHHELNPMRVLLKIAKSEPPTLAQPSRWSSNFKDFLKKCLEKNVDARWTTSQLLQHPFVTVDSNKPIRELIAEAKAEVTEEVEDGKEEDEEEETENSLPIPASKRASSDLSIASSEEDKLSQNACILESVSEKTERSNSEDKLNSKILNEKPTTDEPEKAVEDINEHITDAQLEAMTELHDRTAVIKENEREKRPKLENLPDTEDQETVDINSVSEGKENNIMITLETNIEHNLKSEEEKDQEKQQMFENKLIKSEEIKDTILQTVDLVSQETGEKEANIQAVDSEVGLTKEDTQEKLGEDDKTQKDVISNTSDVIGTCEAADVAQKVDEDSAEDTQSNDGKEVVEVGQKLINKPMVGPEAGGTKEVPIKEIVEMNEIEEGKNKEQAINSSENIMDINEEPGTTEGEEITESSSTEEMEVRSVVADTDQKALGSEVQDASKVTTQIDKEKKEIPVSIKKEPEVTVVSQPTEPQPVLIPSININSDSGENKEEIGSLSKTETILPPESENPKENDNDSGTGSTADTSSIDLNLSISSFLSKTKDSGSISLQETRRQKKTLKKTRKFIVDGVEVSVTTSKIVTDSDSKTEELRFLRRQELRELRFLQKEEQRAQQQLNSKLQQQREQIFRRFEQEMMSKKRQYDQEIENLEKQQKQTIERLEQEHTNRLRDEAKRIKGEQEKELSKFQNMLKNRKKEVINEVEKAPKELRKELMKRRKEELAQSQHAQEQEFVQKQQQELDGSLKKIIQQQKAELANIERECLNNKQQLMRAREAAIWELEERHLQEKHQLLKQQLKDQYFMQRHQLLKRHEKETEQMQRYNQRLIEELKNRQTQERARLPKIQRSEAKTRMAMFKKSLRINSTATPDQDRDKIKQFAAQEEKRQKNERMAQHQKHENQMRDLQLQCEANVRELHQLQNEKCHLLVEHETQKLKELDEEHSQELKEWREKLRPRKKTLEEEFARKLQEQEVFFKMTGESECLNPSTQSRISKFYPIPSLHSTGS
Chain of Nociceptin receptor (Homo sapiens) (P41146 whole entry): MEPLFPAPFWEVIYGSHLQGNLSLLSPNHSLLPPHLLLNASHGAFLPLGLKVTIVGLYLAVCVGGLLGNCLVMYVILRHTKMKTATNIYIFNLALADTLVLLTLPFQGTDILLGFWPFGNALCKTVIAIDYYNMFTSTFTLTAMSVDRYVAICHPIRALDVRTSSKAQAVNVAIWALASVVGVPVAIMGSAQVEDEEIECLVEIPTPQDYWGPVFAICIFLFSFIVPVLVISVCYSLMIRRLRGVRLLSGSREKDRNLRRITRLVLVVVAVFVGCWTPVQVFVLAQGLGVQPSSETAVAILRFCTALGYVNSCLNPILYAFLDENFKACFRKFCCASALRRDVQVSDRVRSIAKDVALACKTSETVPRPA
Chain of Serine/threonine-protein kinase N2 (Q16513 whole entry, looked up): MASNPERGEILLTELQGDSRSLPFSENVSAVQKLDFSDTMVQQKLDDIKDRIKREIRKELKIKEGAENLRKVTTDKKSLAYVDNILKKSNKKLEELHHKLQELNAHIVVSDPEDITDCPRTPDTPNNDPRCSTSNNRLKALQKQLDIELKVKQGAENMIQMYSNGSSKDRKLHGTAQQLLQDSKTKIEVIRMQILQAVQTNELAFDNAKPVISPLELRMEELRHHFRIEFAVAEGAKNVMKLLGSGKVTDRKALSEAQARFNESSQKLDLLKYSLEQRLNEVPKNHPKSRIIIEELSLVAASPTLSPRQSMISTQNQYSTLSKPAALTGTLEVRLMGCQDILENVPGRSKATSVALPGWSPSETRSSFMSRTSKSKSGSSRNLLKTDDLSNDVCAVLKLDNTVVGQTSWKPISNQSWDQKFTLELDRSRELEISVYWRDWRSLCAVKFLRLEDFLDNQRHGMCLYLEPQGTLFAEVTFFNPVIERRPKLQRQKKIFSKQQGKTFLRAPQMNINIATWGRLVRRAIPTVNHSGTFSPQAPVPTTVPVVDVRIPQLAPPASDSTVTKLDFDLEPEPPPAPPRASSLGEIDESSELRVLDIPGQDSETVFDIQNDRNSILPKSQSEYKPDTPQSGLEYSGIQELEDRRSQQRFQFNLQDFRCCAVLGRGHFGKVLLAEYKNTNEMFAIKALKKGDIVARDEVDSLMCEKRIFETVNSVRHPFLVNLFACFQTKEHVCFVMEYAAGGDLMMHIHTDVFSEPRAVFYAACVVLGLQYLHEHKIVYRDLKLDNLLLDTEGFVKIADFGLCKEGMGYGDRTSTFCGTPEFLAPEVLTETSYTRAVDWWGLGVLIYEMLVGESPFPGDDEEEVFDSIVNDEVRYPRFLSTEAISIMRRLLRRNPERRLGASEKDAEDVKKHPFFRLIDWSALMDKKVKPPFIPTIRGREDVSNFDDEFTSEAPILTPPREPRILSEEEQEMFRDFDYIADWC
Chain of Mitogen-activated protein kinase 3 (P27361 whole entry): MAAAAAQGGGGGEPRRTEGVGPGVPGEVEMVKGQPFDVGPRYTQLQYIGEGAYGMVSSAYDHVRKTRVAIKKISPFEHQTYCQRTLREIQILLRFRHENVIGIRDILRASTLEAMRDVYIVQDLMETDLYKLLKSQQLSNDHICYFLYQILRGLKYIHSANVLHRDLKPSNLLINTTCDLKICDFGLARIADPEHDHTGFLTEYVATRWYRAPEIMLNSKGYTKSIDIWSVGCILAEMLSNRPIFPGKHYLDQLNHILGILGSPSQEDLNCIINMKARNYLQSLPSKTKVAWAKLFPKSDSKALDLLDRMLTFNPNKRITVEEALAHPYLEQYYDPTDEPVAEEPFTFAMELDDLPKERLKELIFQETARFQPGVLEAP

As to `N#Cc1cccc(-c2c[nH]c3ncnc(N4CCOCC4)c23)c1`, the % of inhibition was determined as 19% in experiment [1] and 1% in experiment [2].

In [3], `CC(=O)c1cc(-c2ccccc2OCC2CC2)c2ncccn12` had a % of control of 88%.

Molecule `Cc1cc(F)c(C(=O)Nc2cccc(-c3nncn3C(C)C)n2)cc1-n1cnc(C2CC2)c1` registered a % of control in experiment [4] of 99%.

Regarding `CNC(=O)Nc1ccc(-c2nc(N3CC4CCC(C3)O4)c3cnn(C4CCC5(CC4)OCCO5)c3n2)cc1`, in experiment [5], the % of control was 83%.

For `C=CC(=O)Nc1cc(-n2c(=O)ccc3cnc4ccc(-c5ccc(NS(C)(=O)=O)cc5)cc4c32)ccc1C`, the % of control in experiment [6] (at 1 µM) and in experiment [6] (at 10 µM) was 100% in each case.

Turning to `COc1cc(Nc2nc(C)cc(-c3cnn4nc(OC)ccc34)n2)cc(C(F)(F)F)c1`, the % of control was 49% in [7] and 98% in [8].

`CCC(=O)N1CCN(c2ccc(-n3c(=O)ccc4cnc5ccc(-c6cnc7ccccc7c6)cc5c43)cc2C(F)(F)F)CC1` registered a % of control in experiment [9] of 17%.

With `COc1cc(N(C)c2ccnc3ccc(C(F)(F)F)cc23)cc(OC)c1OC`, the negative logarithm of the Kd (pKd) – broadly, the Kd on a negative log10 scale, so that one unit is a factor of ten – in experiment [10] was less than 5.00.

The values are drawn from ChEMBL document CHEMBL5465560, “Selectivity Literature for EUbOPEN Chemogenomic Library” (2024).
